Assays:
[1] = test system: BAW (Spodoptera exigua); assay: Bioassay on Beet Armyworm (BAW), 128-well diet tray; type: in vivo; conditions: Spodoptera exigua, 168 h; percent mortality, second instar larvae, 50 μg/cm^2 on diet, five to seven days; read-out: Rating BAW
Description: (§1) Certain molecules disclosed in this document were tested against BAW and CEW using procedures described in the following examples. In the reporting of the results, the “BAW & CEW Rating Table” was used (See Table Section).
Bioassays on BAW (Spodoptera exigua)
(§2) Trays were covered with a clear self-adhesive cover and held at 25° C., 14:10 light-dark for five to seven days. Percent mortality was recorded for the larvae in each well; activity in the eight wells was then averaged. The results are indicated in the table entitled “Table ABC: Biological Results” (See Table Section).

[2] = test system: CEW (Helicoverpa zea); assay: Bioassay on Corn Earworm (CEW), 128-well diet tray; type: in vivo; conditions: Helicoverpa zea, 168 h, percent mortality, second instar larvae, five to seven days; for pest or weed control at 50 µg/cm2: 50 μg/cm^2 on diet, read-out: Rating CEW; for pest or weed control at 0.5 µg/cm2: 0.5 μg/cm^2 on diet, read-out: Rating CEW (*Tested at 0.5 μg/cm^2)
Description: as §1
Bioassays on CEW (Helicoverpa zea)
as §2

Row | Compound | pest or weed control at 50 µg/cm2 [1] [%] | pest or weed control at 50 µg/cm2 [2] [%] | pest or weed control at 0.5 µg/cm2 [2] [%]
1 | Cc1cccc(C)c1N/C(O)=C/C(=O)Nc1ccc(-c2ncn(-c3ccc(OC(F)(F)F)cc3)n2)cc1 [Molecule A32, (Z)-3-(2,6-dimethylphenylamino)-3-hydroxy-I-(4-(1-(4-(trifluoromethoxy)phenyl)-1H-1,2,4-triazol-3-yl)phenyl)acrylamide] | 50 to 100 | 50 to 100 | –
2 | CC(C)n1nccc1N1C(=O)CS/C1=N\C(=O)Nc1ccc(-c2ncn(-c3ccc(OC(F)(F)F)cc3)n2)cc1 [Molecule A121] | 50 to 100 | – | 50 to 100
3 | CC(C)n1nccc1N/C(S)=N/C(=O)Nc1ccc(-c2ncn(-c3ccc(OC(F)(F)F)cc3)n2)cc1 [Molecule A119] | 50 to 100 | – | 0 to 50
4 | CC(C)c1ccccc1N1C(=O)CS/C1=N\C(=O)Nc1ccc(-c2ncn(-c3ccc(OC(F)(F)F)cc3)n2)cc1 [Molecule A19, (Z)-1-(3-(2-isopropylphenyl)-4-oxothiazolidin-2-ylidene)-3-(4-(1-(4-(trifluoromethoxy)phenyl)-1H-1,2,4-triazol-3-yl)phenyl)urea] | 50 to 100 | 50 to 100 | –
5 | CC(C)C(=O)OCS/C(=N\C(=O)Nc1ccc(-c2ncn(-c3ccc(OC(F)(F)F)cc3)n2)cc1)Nc1ccccc1C(C)C [Molecule A5, (Z)—((N-(2-Isopropylphenyl)-N′-((4-(1-(4-(trifluoromethoxy)phenyl)-1H-1,2,4-triazol-3-yl)phenyl)carbamoyl)carbamimidoyl)thio)methyl isobutyrate] | 50 to 100 | 50 to 100 | –
6 | CC(C)c1c(F)cccc1N1C(=O)CS/C1=N\C(=O)Nc1ccc(-c2ncn(-c3ccc(OC(F)(F)F)cc3)n2)cc1 [Molecule A109] | 50 to 100 | – | 50 to 100
7 | Cc1cccc(C)c1N/C(S)=C/C(=O)Nc1ccc(-c2ncn(-c3ccc(OC(F)(F)F)cc3)n2)cc1 [Molecule A23, 3-((2,6-dimethylphenyl)amino)-3-thioxo-N-(4-(1-(4-(trifluoromethoxy)phenyl)-1H-1,2,4-triazol-3-yl)phenyl)propanamide] | 50 to 100 | 50 to 100 | –
8 | CCc1cccc(C)c1N1C(=O)CS/C1=N\C(=O)Nc1ccc(-c2ncn(-c3ccc(OC(F)(F)F)cc3)n2)cc1 [Molecule A103] | 50 to 100 | – | 50 to 100
9 | COc1ccc(NC(NC(=O)Nc2ccc(-c3ncn(-c4ccc(OC(F)(F)F)cc4)n3)cc2)SCOC(=O)C(C)C)c(C)c1 (centres unmarked) [Molecule A56] | 50 to 100 | 50 to 100 | –
10 | CCc1ccccc1N/C(=N\C(=O)Nc1ccc(-c2ncn(-c3ccc(OC(F)(F)F)cc3)n2)cc1)SCOC(=O)C(C)C [Molecule A57] | 50 to 100 | 50 to 100 | –
11 | CC(C)c1ccc(F)cc1N/C(S)=N/C(=O)Nc1ccc(-c2ncn(-c3ccc(OC(F)(F)F)cc3)n2)cc1 [Molecule A82] | 50 to 100 | – | 50 to 100
12 | O=C(/N=C1\SCC(=O)N1c1ccc(Cl)cc1Cl)Nc1ccc(-c2ncn(-c3ccc(OC(F)(F)F)cc3)n2)cc1 [Molecule A92] | 50 to 100 | – | 50 to 100
13 | Cc1ccc(F)c(N2C(=O)CS/C2=N\C(=O)Nc2ccc(-c3ncn(-c4ccc(OC(F)(F)F)cc4)n3)cc2)c1 [Molecule A94] | 50 to 100 | – | 50 to 100
14 | COc1ccc(N/C(=N/C(=O)Nc2ccc(-c3ncn(-c4ccc(C(F)(F)F)cc4)n3)cc2)SCOC(=O)C(C)C)c(C)c1 [Molecule A1, (E)-((N′-(4-methoxy-2-methylphenyl)-N-((4-(1-(4-(trifluoromethyl)phenyl)-1H-1,2,4-triazol-3-yl)phenyl)carbamoyl)carbamimidoyl)thio) methyl isobutyrate] | 50 to 100 | 50 to 100 | –
15 | CC(C)c1ccccc1N1C(=O)CS/C1=C\C(=O)Nc1ccc(-c2ncn(-c3ccc(OC(F)(F)F)cc3)n2)cc1 [Molecule A24, (Z)-2-(3-(2-isopropylphenyl)-4-oxothiazolidin-2-ylidene)-N-(4-(1-(4-(trifluoromethoxy)phenyl)-1H-1,2,4-triazol-3-yl)phenyl)acetamide] | 50 to 100 | 50 to 100 | –
16 | CC(C)c1c(F)cccc1N/C(S)=N/C(=O)Nc1ccc(-c2ncn(-c3ccc(OC(F)(F)F)cc3)n2)cc1 [Molecule A107] | 50 to 100 | – | 50 to 100
17 | COc1ccc(N/C(S)=N/C(=O)Nc2ccc(-c3ncn(-c4ccc(OC(F)(F)F)cc4)n3)cc2)c(C)c1 [Molecule A98] | 50 to 100 | – | 50 to 100
18 | CC(C)c1ccccc1N1C(=O)CS/C1=N\C(=O)Nc1ccc(-c2ncn(-c3ccc(OC(F)(F)C(F)(F)F)cc3)n2)cc1 [Molecule A115] | 50 to 100 | – | 50 to 100
19 | CC(C)c1cc(F)ccc1N1C(=O)CS/C1=N\C(=O)Nc1ccc(-c2ncn(-c3ccc(OC(F)(F)F)cc3)n2)cc1 [Molecule A117] | 50 to 100 | – | 50 to 100

Row | Compound | pest or weed control at 50 µg/cm2 [1] [%] | pest or weed control at 50 µg/cm2 [2] [%] | pest or weed control at 0.5 µg/cm2 [2] [%]
20 | Cc1cc(C)c(N2C(=O)C(C)S/C2=N\C(=O)Nc2ccc(-c3ncn(-c4ccc(OC(F)(F)F)cc4)n3)cc2)c(C)c1 (centres unmarked) [Molecule A37] | 50 to 100 | 50 to 100 | –
21 | O=C(/N=C1\SCC(=O)N1c1ccccc1Cc1ccccc1)Nc1ccc(-c2ncn(-c3ccc(OC(F)(F)F)cc3)n2)cc1 [Molecule A105] | 50 to 100 | – | 50 to 100
22 | Cc1ccccc1N/C(S)=C(\C#N)C(=O)Nc1ccc(-c2ncn(-c3ccc(OC(F)(F)F)cc3)n2)cc1 [Molecule A29, (Z)-2-Cyano-3-mercapto-3-(o-tolylamino)-N-(4-(1-(4-(trifluoromethoxy)phenyl)-1H-1,2,4-triazol-3-yl)phenyl)acrylamide] | 0 to 50 | 50 to 100 | –
23 | Cc1cccc(N/C(S)=N/C(=O)Nc2ccc(-c3ncn(-c4ccc(OC(F)(F)F)cc4)n3)cc2)c1C(C)C [Molecule A106] | 50 to 100 | – | 50 to 100
24 | CC(C)C(=O)OCS/C(=N\C(=O)Nc1ccc(-c2ncn(-c3ccc(OC(F)(F)C(F)(F)F)cc3)n2)cc1)Nc1ccccc1C(C)C [Molecule A6, (Z)—((N-(2-Isopropylphenyl)-N′-((4-(1-(4-(pentafluoroethoxy)phenyl)-1H-1,2,4-triazol-3-yl)phenyl)carbamoyl)carbamimidoyl)thio)methyl isobutyrate] | 50 to 100 | 50 to 100 | –
25 | Cc1cccc(N2C(=O)CS/C2=N\C(=O)Nc2ccc(-c3ncn(-c4ccc(OC(F)(F)F)cc4)n3)cc2)c1C [Molecule A75] | 50 to 100 | – | 50 to 100
26 | CC(C)c1ccccc1NC(=O)NC(=O)Nc1ccc(-c2ncn(-c3ccc(OC(F)(F)F)cc3)n2)cc1 [Molecule A13, 1-(2-isopropylphenyl)-3-[[4-[1-[4-(trifluoromethoxy)phenyl]-1,2,4-triazol-3-yl]phenyl]carbamoyl]urea] | 50 to 100 | 50 to 100 | –
27 | Cc1cc(C)c(N/C(S)=N/C(=O)Nc2ccc(-c3ncn(-c4ccc(OC(F)(F)F)cc4)n3)cc2)c(C)c1 [Molecule A49] | 50 to 100 | 50 to 100 | –
28 | CC(C)c1cccc(Cl)c1N/C(S)=N/C(=O)Nc1ccc(-c2ncn(-c3ccc(OC(F)(F)F)cc3)n2)cc1 [Molecule A81] | 50 to 100 | 50 to 100 | –
29 | Cc1cc(C)c(N2CC(C)CS/C2=N\C(=O)Nc2ccc(-c3ncn(-c4ccc(OC(F)(F)F)cc4)n3)cc2)c(C)c1 (centres unmarked) [Molecule A41] | 50 to 100 | 50 to 100 | –
30 | CC(C)c1ccc(F)cc1N1C(=O)CS/C1=N\C(=O)Nc1ccc(-c2ncn(-c3ccc(OC(F)(F)F)cc3)n2)cc1 [Molecule A86] | 50 to 100 | – | 50 to 100
31 | CC(C)C(=O)OCS/C(=N/C(=O)Nc1ccc(-c2ncn(-c3ccc(OC(F)(F)F)cc3)n2)cc1)Nc1c(Cl)cccc1Cl [Molecule A58] | 50 to 100 | 50 to 100 | –
32 | Cc1cccc(C)c1N1CC(C)CS/C1=N\C(=O)Nc1ccc(-c2ncn(-c3ccc(OC(F)(F)F)cc3)n2)cc1 (centres unmarked) [Molecule A39] | 50 to 100 | 50 to 100 | –
33 | Cc1cccc(C)c1N/C(S)=N/C(=O)Nc1ccc(-c2ncn(-c3ccc(C(F)(F)F)cc3)n2)cc1 [Molecule A12] | 50 to 100 | 50 to 100 | –
34 | CCc1cccc(C)c1N/C(=N\C(=O)Nc1ccc(-c2ncn(-c3ccc(OC(F)(F)F)cc3)n2)cc1)SCOC(=O)C(C)C [Molecule A55] | 50 to 100 | 50 to 100 | –
35 | Cc1ccc(N/C(S)=N/C(=O)Nc2ccc(-c3ncn(-c4ccc(OC(F)(F)F)cc4)n3)cc2)c(C)c1 [Molecule A68] | 50 to 100 | – | 50 to 100
36 | Cc1cccc(Cl)c1N/C(S)=N/C(=O)Nc1ccc(-c2ncn(-c3ccc(OC(F)(F)F)cc3)n2)cc1 [Molecule A70] | 50 to 100 | – | 50 to 100
37 | CCc1ccccc1NC(=O)NC(=O)Nc1ccc(-c2ncn(-c3ccc(OC(F)(F)F)cc3)n2)cc1 [Molecule A52] | 50 to 100 | 50 to 100 | –
